# Laboratory results taken from patent US8993557B2, “Pyridinedione carboxamide inhibitors of endothelial lipase” (Bristol-Myers Squibb Company, priority 2011, dated 2015).
# Molecular target: Endothelial lipase (EL) (Homo sapiens (Human), UniProt Q9Y5X9)
# Assay: Endothelial lipase (EL) enzymatic assay with fluorescent substrate A10070 in DMPG vesicles
# Type: biochemical
# Conditions: conditioned media from HT-1080 cells overexpressing endogenous EL; 20 min preincubation at 37° C.; read-out: HLE_EL_CRC IC50
# Method: Endothelial lipase activity was measured using a fluorescent substrate, A10070, (Invitrogen, CA) doped into an artificial vesicle containing DMPG (Avanti Polar Lipids) as the excipient. Vesicles were prepared by combining 285 uL of 1 mM DMPG in a 1:1 mixture of MeOH and CHCl3 with 15 uL of 1 mM A10070 in a 1:1 mixture of MeOH and CHCl3. The mixture was dried under nitrogen and resuspended in 150 uL of 50 mM HEPES pH 8.0 buffer containing 100 mM NaCl and 0.2 mM EDTA. The sample was allowed to sit at rt for 15 min and then was sonicated 3×4 mins on ice with a Branson Sonicator using duty cycle 1. This preparation provides vesicles with a mole fraction of 0.05 for the FRET substrate.
# The enzymatic assay was measured using white, opaque 96-well half area plates. Each well contained 60 uL of assay buffer (50 mM HEPES pH 8.0, 50 mM NaCl and 1 mM CaCl2) and 2 ul of a DMSO solution containing compound of interest. Conditioned media obtained from HT-1080 cells, which were transformed by RAGE technology (Athersys) to overexpress endogenous EL, was added and the reaction was allowed to incubate for 20 min at 37° C. with gentle agitation. The reaction was started by the addition of 20 uL of a 1:4 dilution of vesicles. The final total reaction volume was 100 uL. The reaction rates were measured on a Gemini plate reader with an excitation wavelength of 488 nm and a emission of 530 nm. Readings were taken every 20 seconds for 10 min with agitation between each reading. The slope of the linear portion of the readout was used to calculate the rate of the reaction.
# Endothelial lipase (EL), sequence (Q9Y5X9 21-500): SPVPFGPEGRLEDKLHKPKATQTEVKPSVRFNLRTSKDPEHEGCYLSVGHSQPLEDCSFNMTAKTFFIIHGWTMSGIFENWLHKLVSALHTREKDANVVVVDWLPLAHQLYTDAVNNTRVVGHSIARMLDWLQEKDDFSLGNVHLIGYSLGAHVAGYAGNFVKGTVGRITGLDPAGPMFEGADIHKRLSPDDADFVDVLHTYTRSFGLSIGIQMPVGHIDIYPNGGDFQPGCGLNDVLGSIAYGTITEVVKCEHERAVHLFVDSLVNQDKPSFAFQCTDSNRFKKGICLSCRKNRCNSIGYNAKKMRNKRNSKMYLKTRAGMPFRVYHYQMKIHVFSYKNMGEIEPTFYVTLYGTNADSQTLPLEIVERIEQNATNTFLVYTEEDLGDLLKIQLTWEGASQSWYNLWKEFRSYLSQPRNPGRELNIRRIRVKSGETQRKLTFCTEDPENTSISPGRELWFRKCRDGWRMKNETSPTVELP
row,IC50,SMILES
1,10 nM,"Cn1ccc(C(=O)NCc2ccc(Oc3ccc(F)cc3)cc2)c(O)c1=O [Example 16, N-(4-(4-fluorophenoxy)benzyl)-3-hydroxy-1-methyl-2-oxo-1,2-dihydropyridine-4-carboxamide]"
2,17.9 nM,"Cn1ccc(C(=O)NCc2cccc(-c3ccccc3)c2)c(O)c1=O [Example 21, N-(biphenyl-3-ylmethyl)-3-hydroxy-1-methyl-2-oxo-1,2-dihydropyridine-4-carboxamide]"
3,6540 nM,"Cn1ccc(C(=O)NCc2ccccc2N2CCCCC2)c(O)c1=O [Example 29, 3-hydroxy-1-methyl-2-oxo-N-(2-(piperidin-1-yl)benzyl)-1,2-dihydropyridine-4-carboxamide]"
4,6450 nM,"Cn1ccc(C(=O)NCc2ccccc2N2CCCC2)c(O)c1=O [Example 31, 3-hydroxy-1-methyl-2-oxo-N-(2-(pyrrolidin-1-yl)benzyl)-1,2-dihydropyridine-4-carboxamide]"
5,11.3 nM,"Cn1c(C(F)(F)F)cc(C(=O)NCc2cccc(-c3ccc(Cl)cc3)c2)c(O)c1=O [Example 32, N-((4′-chlorobiphenyl-3-yl)methyl)-3-hydroxy-1-methyl-2-oxo-6-(trifluoromethyl)-1,2-dihydropyridine-4-carboxamide]"
6,4570 nM,"O=C(NC1CCN(c2ccc(F)cc2)CC1)c1ccn(CC(F)(F)F)c(=O)c1O [Example 33, N-(1-(4-fluorophenyl)piperidin-4-yl)-3-hydroxy-2-oxo-1-(2,2,2-trifluoroethyl)-1,2-dihydropyridine-4-carboxamide]"
7,352 nM,"O=C(N[C@H]1CC[C@@H](c2ccccc2)CC1)c1ccn(CCC(F)(F)F)c(=O)c1O [Example 37, 3-hydroxy-2-oxo-N-(cis-4-phenylcyclohexyl)-1-(3,3,3-trifluoropropyl)-1,2-dihydropyridine-4-carboxamide]"
8,692 nM,"O=C(N[C@H]1CC[C@@H](c2ccccc2)CC1)c1ccn(CCCC(F)(F)F)c(=O)c1O [Example 39, 3-hydroxy-2-oxo-N-(cis-4-phenylcyclohexyl)-1-(4,4,4-trifluorobutyl)-1,2-dihydropyridine-4-carboxamide]"
9,11.1 nM,"O=C(NCc1ccccc1-c1ccc(F)cc1)c1ccn(CC(F)(F)F)c(=O)c1O [Example 41, N-((4′-fluorobiphenyl-2-yl)methyl)-3-hydroxy-2-oxo-1-(2,2,2-trifluoroethyl)-1,2-dihydropyridine-4-]"
10,475 nM,"Cn1c(Cl)cc(C(=O)NC2CCC(c3ccccc3)CC2)c(O)c1=O (stereo not shown) [Example 44, 6-chloro-3-hydroxy-1-methyl-2-oxo-N-(4-phenylcyclohexyl)-1,2-dihydropyridine-4-carboxamide]"
